Results on four compounds are retold here after patent US20180235870A1, “TRANSDERMAL FORMULATIONS FOR DELIVERY OF BERBERINE COMPOUNDS, AND THEIR USE IN THE TREATMENT OF BERBERINE-RESPONSIVE DISEASES AND CONDITIONS” (DELIVRA INC., priority 2015, published 2018).

The nature of data set [1]: Stability of synthetic derivatives DHB and THB in solution (UV/VIS). It is filed as physicochemical. The following applies: for stability over time (oxidation to berberine): several solvents. The text has this: UV/VIS spectrometry is a useful tool for monitoring the conversion of DHB to berberine in solution. Several anti-oxidants and encapsulating agents were combined with DHB in solution to increase stability.

Data set [2] deals with PCSK9 expression in HEPG2 cells. Briefly: Berberine signaling in HEPG2: PCSK9 western blot of supernatant. It counts as cell-based, human. The conditions noted are these: 24 hours; for expression of PCSK9 in supernatant (western blot): 25 to 3.125 ug/ml, versus negative control. Here is the method: HEPG2 cells were cultured in 24 well plates to confluence in DMEM supplemented with 10% FBS. After reaching confluence, cells were incubated overnight with 0.1% FBS OPTIMEM for serum starvation. After serum starvation the cells were incubated with berberine, DHB, or THB in 0.1% FBS OPTIMEM using the following dose course: 25 ug/ml, 12.5 ug/ml 6.25 ug/ml 3.125 ug/ml for 24 hours. Supernatant was collected after stimulation and western blotted as follows:
(1) Resolved on 12.5% gel.
(3) Blocked with 3% BSA TBST (4) Rabbit anti PCSK9 (Cayman chemicals cat 10007185) at 1/600 in TTBS (5) Wash 3×5 min with TTBS (6) HRP-Goat anti-Rabbit 1/1000 (Cayman chemicals) (7) Wash 3×5 min with TTBS (8) Detection with ECL
Proprotein convertase subtilisin/kexin type 9 (PCSK9) post-transcriptionally downregulates the low-density lipoprotein receptor (LDLR) by binding to the receptor's epidermal growth factor repeat A on the cell surface and shuttling the LDLR to the lysosomes for degradation. […] Previous reports indicate that berberine has lipid lowering effects in both animal models and human trials (Arrigo F. G., Cicero, L., Rovati C. et al., 2007). The signalling effects of berberine, DHB, and THB were evaluated using the human liver cell line HEPG2. PCSK9, an enzyme that acts in cholesterol homeostasis, is expressed in HEPG2 cells and these cells have previously been used as a model of dyslipidemia. PCSK9 binds to LDL receptor causing uptake of LDL and the LDL receptor and targets both molecules for degradation upon internalization. In the absence of PCSK9, LDL and LDL receptor are still internalized, however, LDL receptor is not degraded but instead recycled to the cell surface resulting in more efficient uptake of circulating LDL.
Background: In western blotting, separated proteins are transferred to a membrane and probed.

Data set [3] in a line: Solubility testing of berberine and dihydroberberine using various solvents. It is filed as physicochemical. The procedure: Solubility was determined in a step-wise procedure that involved attempting to dissolve the berberine/DHB in the solvents at relatively high concentrations. […] Then the expected solvent was added to the berberine/DHB. The container was sonicated at RT or at 40C for 30 minutes. The following solvents were tested to dissolve the DHB. Dimethyl sulfoxide (Reagent Grade; […] Lot #STB[…]), and Glycerol tributyrate (Sigma T8626; Lot #BCBQ […]). […] The solubility was visually checked and state of solubility was recorded.

Data set [4] concerns male Zucker rat, a model of type-2 diabetes and metabolic disorder. Put plainly: Effect of berberine, metformin and simvastatin on body mass, lipid biomarkers, food and water intake, clinical chemistry (Example 18). It counts as in vivo, obese male Zucker fa/fa rats. The conditions noted are these: Zucker rats, Days 0 to 28. The procedure:
All in vivo animal husbandry, treatment regiments, and sample collections were completed by InterVivo. The study was completed using obese male Zucker fa/fa rats (Charles River) at 10 weeks of age. […] Shaving was performed under anaesthesia one day prior to initiation of test article administration. The area was further shaven, as needed, over the course of the dosing period to ensure accurate drug application and absorption. For dosing procedures, animals were restrained and the transdermal test articles applied in a uniform layer over the entire shaved area. The shaved administration area was cleaned daily with paper towel before the subsequent transdermal dose was administered. Animals receiving test articles via oral gavage were restrained, and a ball-tipped gavage needle (18G) attached to a syringe containing the dosing solution was first inserted into the mouth, and then into the stomach. To determine the appropriate depth of insertion of the needle, the position corresponding to the last rib was measured prior to insertion. […] Group A), oral administration of berberine (180 mg/kg/dose; […] Group C), and oral administration of the vehicle (Group D) (Table 19). […] Group F), or with orally-administered metformin (200 mg/kg/dose; Group G). […] On Day 28, the animals were dosed in the morning only, prior to euthanasia and tissue collection. Animal body weights were performed once weekly from Day −34 to −2 and daily from Day −1 to 28. Rats were weighed, and the scales were operated and maintained, according to standard operating procedures. Food and water consumption measurements were taken over a 24 hour period, once weekly, from Days 0 to 28. Blood was collected via tail nick on Day-1 to determine unfasted blood glucose level for group allocation. Whole blood was collected via the saphenous vein or other appropriate route on Days 0, 7, 14, 21 and 28 immediately prior to test article administration. […] On Day 28, subjects were anaesthetized with isoflurane, and whole blood was collected via cardiac puncture 2.5 hours (+/−5 minutes) following treatment administration on this day. […]

Data set [5] has as its system male Zucker fa/fa rat, a model of type 2 diabetes and metabolic disorder. Briefly: Efficacy of transdermal berberine alone and in combination with pharmaceuticals in a model of metabolic syndrome (Example 19). It counts as in vivo, obese male Zucker fa/fa rats. The following applies: Zucker fa/fa rats. Here is the method:
Fourteen obese male Zucker fa/fa rats at 5 weeks of age were housed for five weeks to the age of 10 weeks. During these five weeks, body weight measurements were taken once a week and once daily health observations were conducted for all animals. […] On Day 28, serum and whole liver was collected. […] Food and water intake measurements were taken once a week during the study period of Day 0 to Day 28. […] A sufficient amount of test article was supplied and formulated. Test article product was administered at a dose of 3.6 g/kg twice a day (e.g. […] Berberine cream was weighed fresh daily at each AM and PM dosing to avoid desiccation of the test article. Daily PO and TD dosing of the test articles took place between the hours of 08:00 to 10:00 and 16:00 to 18:00 for 7 days a week between Day 0 to 27. […] The exact time of dosing (up to the minute) was recorded for each animal on the daily dosing sheets. […] Remaining dosing solutions were stored at 4° C. between dosing periods. […] The animals shaved underwemt gaseous anaesthetic according to SOP ROD28.01 to ensure accuracy and avoid undue stress of the animal. The area was further shaven as needed over the course of the dosing period to ensure accurate drug application and absorption. At dosing, the animals were restrained and the transdermal test articles were applied in a uniform layer over the entire shaved area. […] PTS3028).

Data set [6] is described as follows: Plasma concentrations of berberine, berberine glucuronide, simvastatin and simvastatin hydroxy acid in rats (Example 20). It counts as in vivo. The conditions noted are these: rats (n=2); oral simvastatin 6 mg/kg/dose.
Where [7] appears, read: averaged over the entire experiment.

Entries after “also recorded” stand apart in the source; their conditions may differ.

With `COc1ccc2c(c1OC)CN1CCc3cc4c(cc3C1=C2)OCO4` [DHB, dihydroberberine], the “oxidation of DHB to berberine on addition of ascorbic acid or cyclodextrin” value in data set [1] (UV/VIS) is recorded as “significantly slowed”. The “stability over time (oxidation to berberine)” value in data set [1] is “prone to oxidation to provide berberine after a short time”. Also, the “concentration down to which expression of PCSK9 was reduced” value in data set [2] is 6.25 µg/mL. Moreover, the “expression of PCSK9 in supernatant (western blot)” value in data set [2] is “down-regulate the expression of PCSK9; also recorded: reduce the expression of PCSK9”. Moreover, the “Dissolving Capability” value in data set [3] (Acetone, sonication 40 C.) is given as 25.0 mg/mL; in data set [3] (Acetone, sonication RT), 12.5 mg/mL; in data set [3] (Dimethyl sulfoxide (DMSO), sonication 40 C.), 50.0 mg/mL; in data set [3] (Dimethyl sulfoxide (DMSO), sonication RT), 25.0 mg/mL; in data set [3] (Ethanol, sonication 40 C.), 2.5 mg/mL; in data set [3] (Ethanol, sonication RT), 1.0 mg/mL. The “Dissolving Capability” value in data set [3] (Glycerol tributyrate, sonication 40 C.) is 75 to 250 mg/mL; in data set [3] (Glycerol tributyrate, sonication RT), 10 mg/mL; in data set [3] (Hexylene glycol, sonication 40 C.), 1.0 mg/mL; in data set [3] (Hexylene glycol, sonication RT), 0.5 mg/mL; in data set [3] (Isopropyl myristate, sonication 40 C.), 75 to 250 mg/mL; in data set [3] (Isopropyl myristate, sonication RT), 10 mg/mL. The “Dissolving Capability” value in data set [3] (Isosorbid-dimethyl ether 98%, sonication 40 C.) is recorded as 250 mg/mL; in data set [3] (Isosorbid-dimethyl ether 98%, sonication 40 C., listed as Dihydroberberine), 250 mg/mL; in data set [3] (Isosorbid-dimethyl ether 98%, sonication RT), 25.0 mg/mL; in data set [3] (Mineral oil, sonication 40 C.), 4.0 mg/mL; in data set [3] (Mineral oil, sonication RT), 2.0 mg/mL; in data set [3] (Oleyl alcohol, sonication 40 C., listed as Dihydroberberine), 50 mg/mL. For the same compound, the “Dissolving Capability” value in data set [3] (Oleyl alcohol, sonication 40 C., listed as dihydroberberine) turned out to be 50.0 mg/mL; in data set [3] (Oleyl alcohol, sonication RT), 12.5 mg/mL; in data set [3] (Propanediol, sonication 40 C.) it was 2.5 mg/mL; in data set [3] (Propanediol, sonication RT), 1.0 mg/mL; in data set [3] (Trivalin, sonication 40 C.), 5.0 mg/mL; in data set [3] (Trivalin, sonication RT), 2.5 mg/mL. The “Dissolving Capability” value in data set [3] (Water, sonication 40 C.) is listed as 1.0 mg/mL; in data set [3] (Water, sonication RT), 0.5 mg/mL.
For the compound `CN(C)C(=N)N=C(N)N` [Metformin], in data set [4], the “HbA1c (in words)” value was “largest reduction in HbA1c”. For the same compound, the “rate of weight gain (grams/day)” value in data set [5] (BID, Day 0 to 28, n=2) was 3.3 grams/day. Also, in data set [5] (averaged for the entire experiment), the “overall triglyceride levels (mmol/L+/−SEM)” value was 15.1 ± 0.4 mmol/L. Besides, in data set [5] (setting [7]), the “overall HbA1c level change (mmol/mmol+/−SEM)” value is 34.3+/−0.4 mmol/mmol, the “overall average food intake (grams+/−SEM)” value is reported as 33.4+/−0.7 grams and the “overall cholesterol level change (mmol/L+/−SEM)” value was determined as 5.0 ± 0.4 mmol/L. The “overall average glucose change (%+/−SEM)” value in data set [5] (non-fasting glucose, averaged over the entire experiment) was 5.9+/−5.9%.
`CCC(C)(C)C(=O)O[C@H]1C[C@@H](C)C=C2C=C[C@H](C)[C@H](CC[C@@H]3C[C@@H](O)CC(=O)O3)[C@H]21` [Simvastatin]: the systemic simvastatin concentration in data set [6] worked out at 1.83 ng/mL.
Consider `COc1ccc2c(c1OC)CN1CCc3cc4c(cc3C1C2)OCO4` (stereo not shown) [THB, tetrahydroberberine], for which, in data set [1], the “stability over time (oxidation to berberine)” value is “excellent stability in several solvents”. In data set [2], the “expression of PCSK9 in supernatant (western blot)” value is “did not affect expression of PCSK9; also recorded: did not appear to reduce expression of PCSK9”.
